In patent US4190666A, “Anti-inflammatory 4,5-diarly-2-(substituted-thio)imidazoles and their corresponding sulfoxides and sulfones” (E. I. Du Pont de Nemours and Company, priority 1978, dated 1980):
Like-named read-outs stand apart in the source and are kept apart here.

Experiments:
[1] = tested on: established adjuvant-induced arthritis in rats; assay: Established adjuvant-induced arthritis in rats (therapeutic, paw volume); assay type: in vivo, Charles River Lewis male rats; conditions: for ED50: Rattus norvegicus, po; for percent (%) reduction in paw volume measured at the indicated dose: oral
[2] = tested on: phenylquinone writhing syndrome; assay: Phenylquinone writhing test (analgesic activity); assay type: in vivo, female white mice; conditions: oral; for ED50: Mus musculus, 1% methylcellulose, Tables VIII and IX, read-out: ED50 (effective analgesic dose for 50% of the mice); for peak time: time of peak action
Procedure: Phenylquinone Writhing Test A standard procedure for detecting and comparing the analgesic activity of compounds in this series for which there is good correlation with human efficacy is the standard phenylquinone writhing test modified from Siegmund, et al., Proc. Soc. Exp. Biol. Med. 95, 729 (1957). […] Aqueous (0.01% phenyl-p-benzoquinone) phenylquinone was injected intraperitoneally at 24 minutes later using 0.20 ml per mouse. […] The effective analgesic dose for 50% of the mice (ED50) was calculated by the moving average method of Thompson, W. R., Bact. Rev. 11, 115-145 (1947); also time of peak action was determined for many of the compounds.

[3] = tested on: non-established adjuvant-induced arthritis in rats; assay: Non-established adjuvant-induced arthritis in rats (prevention of development, paw volume); assay type: in vivo, Charles River Lewis male rats; conditions: Rattus norvegicus; Table V, oral, 14 daily doses from adjuvant injection; read-out: ED50% non-established arthritis
Procedure: Non-Established Adjuvant-Induces Arthritis in Rats
A test used primarily to determine the effects of compounds on the immunological reactions involved in the induction process and to prevent the development of arthritis.
Charles River Lewis male rats (130-150 grams) are injected subcutaneously in the plantar area of the right hind paw with 0.1 ml of adjuvant (Difco heat-killed, lyophilized Mycobacterium butyricum suspended in mineral oil 5 mg/ml). 40 Non-arthritic controls are injected with mineral oil. Groups of 20 rats are given single, daily oral doses of compound (in PVA-Acacia vehicle, 10 ml/kg) or vehicle by gavage beginning immediately following paw injection for a total of 14 doses. The paw volume of the uninjected (left) hind paw is measured 24 hours after the last dose using a Ugo Basile Volume differential meter Model 7101. The ED50% decrease from control is determined as described above.

[4] = tested on: plaque forming (antibody producing) spleen cells of rats with adjuvant-induced arthritis; assay: Modified Jerne spleen cell hemolytic plaque assay; assay type: in vivo, rats (Charles River Lewis)
Procedure: MODIFIED JERNE SPLEEN CELL HEMOLYTIC PLAQUE ASSAY
A modification of the technique described by N. K. Jerne and A. A. Nordin (Science, 140, 450, 1963) was used in these studies. Rats (Charles River Lewis) with adjuvant-induced arthritis (and non-arthritic controls) were dosed orally ounce per day with PVA-Acacia vehicle* or compounds in vehicle from day 14 (following adjuvant injection) to day 20. The animals were sensitized with sheep red blood cells (SRBC) (0.2 ml of a 10% suspension=[…]) I.V. on day 17. The SRBC (Microbiological Associates) were washed 3 times in 0.9% sodium chloride solution prior to injection. On day 21 the rats were anesthetized with 1% sodium pentobarbital I.P. and the spleens were removed. Each spleen was placed on a stainless steel screen suspended over a plastic beaker in an ice bath and gently macerated with a glass syringe plunger. The cells were washed through the mesh into the beaker using a pasteur pipette to apply about 10 ml of Eagle's Minimal Essential Medium (MEM) during the maceration process until only fibrous material remained on the screen. Large particles were allowed to settle out for about 5 minutes and about 5 ml of supernatant was transferred to a plastic tube. Dilutions of 1:10 and 1:20 were made in cold MEM.
Plating: 2 ml of 0.7% Agarose (1.4% diluted 1:2 with 2X Eagles MEM) and 0.2 ml of a 10% SRBC suspension were pre-warmed in a 45° C. water bath. 20 Lambda of spleen cell dilution were added, mixed gently and poured into a supporting layer of 2 ml of 1.4% Agarose in a 60×15 mm plastic petri plate. Plates were incubated at 37° C. for 1.5 hours in a humidified incubator. 1.5 ml of guinea pig complement (diluted 1:10 with MEM) was added and incubation was continued for 1 hour longer.
Zones of hemolysis (plaques) per plate were counted without magnification against a diffuse light source. Assuming each plaque to have resulted from hemolysin produced by a single spleen cell, the number of plaque forming cells (PFC) per million spleen cells was calculated for each dilution. The statistical calculations (mean, standard error and "t" test) included the PFC/million count for each dilution of each spleen.

[5] = tested on: B lymphocytes in spleen cell suspensions
[6] = established arthritis, 7 daily doses, ED50% decrease from control paw volume, Tables I-III, read-out: Adjuvant Arthritis (ED50%)
[7] = Table V, read-out: ED50% established arthritis

SMILES | ED50 [1, 6] [mg/kg] | ED50 [2] [mg/kg] | peak time [2] [min] | also measured
COc1ccc(-c2nc(SCC(F)(F)F)[nH]c2-c2ccc(OC)cc2)cc1 [Example 4, 4,5-bis-(4-Methoxyphenyl)-2-(2,2,2-trifluoroethylthio)imidazole] | 20 | 1.2 | 240 | 
COc1ccc(-c2nc([S+]([O-])CC(F)(F)F)[nH]c2-c2ccc(OC)cc2)cc1 (centres unmarked) [Example 5, 4,5-bis(4-Methoxyphenyl)-2-(2,2,2-trifluoroethylsulfinyl)-imidazole] | 10 | 0.86 | 60 | 
COc1ccc(-c2nc(S(=O)(=O)CC(F)(F)F)[nH]c2-c2ccc(OC)cc2)cc1 [Example 6, 4,5-bis(4-Methoxyphenyl)-2-(2,2,2-trifluoroethylsulfonyl)-imidazole] | 3.8 | 0.58 | 60 | 
FC(F)C(F)(F)Sc1nc(-c2ccccc2)c(-c2ccccc2)[nH]1 [Example 18, 4,5-Diphenyl-2-(1,1,2,2-tetrafluoroethylthio)imidazole] | 0.75 |  |  | ED50 [3]: 2.3 mg/kg; ED50 [1, 7]: 0.75 mg/kg; mean plaque forming cells per million spleen cells (N = 20) ([4]; daily oral dose 1.5 mg/kg): 197 cells per million spleen cells; mean plaque forming cells per million spleen cells (N = 20) ([4]; daily oral dose 15 mg/kg): 320 cells per million spleen cells; mean % B cells ([5]; daily oral dose 1.5 mg/kg, pooled data from 2 experiments (N = 10)): 37%; mean % B cells ([5]; daily oral dose 15 mg/kg, pooled data from 2 experiments (N = 10)): 34%
FC(F)C(F)(F)Sc1nc(-c2ccc(Cl)cc2)c(-c2ccc(Cl)cc2)[nH]1 [Example 39] | 0.3 |  |  | ED50 [3]: 0.06 mg/kg; ED50 [1, 7]: 0.2 mg/kg; mean plaque forming cells per million spleen cells (N = 20) ([4]; daily oral dose 0.1 mg/kg): 788 cells per million spleen cells; mean plaque forming cells per million spleen cells (N = 20) ([4]; daily oral dose 1.0 mg/kg): 488 cells per million spleen cells; mean % B cells ([5]; daily oral dose 0.2 mg/kg, pooled data from 2 experiments (N = 10)): 37%; mean % B cells ([5]; daily oral dose 2.0 mg/kg, pooled data from 2 experiments (N = 10)): 35%
O=S(=O)(c1nc(-c2ccccc2)c(-c2ccccc2)[nH]1)C(F)(F)C(F)F [Example 60, 4,5-diphenyl-2-(1,1,2,2-tetrafluoroethylsulfonyl)imidazole] | 0.13 | 0.48 | 120 | 
COc1ccc(-c2nc(S(=O)(=O)C(F)(F)C(F)F)[nH]c2-c2ccc(OC)cc2)cc1 [Example 64, 4,5-bis(4-methoxyphenyl)-2-(1,1,2,2-tetrafluoroethylsulfonyl)imidazole] | 1.1 | 0.11 | 120 | 
COc1ccc(-c2nc([S+]([O-])C(F)(F)C(F)F)[nH]c2-c2ccc(OC)cc2)cc1 (centres unmarked) [Example 65] | 2.4 | 0.8 |  | 
COc1ccc(-c2nc(S(=O)(=O)C(F)F)[nH]c2-c2ccc(OC)cc2)cc1 [Example 74] | 0.5 | 1.5 |  | 
COc1ccc(-c2nc(S(=O)(=O)C(F)(F)C(F)F)[nH]c2-c2ccccc2)cc1 [Example 82] | 1.1 | 0.33 | 240 | 
COc1ccc(-c2[nH]c(S(=O)(=O)C(F)(F)C(F)F)nc2-c2ccccc2Cl)cc1 [Example 83] | 7.2 | 0.56 | 60 | 
O=S(=O)(c1nc(-c2ccc(Cl)cc2)c(-c2ccccc2)[nH]1)C(F)(F)C(F)F [Example 86, 4(or 5)-(4-chlorophenyl)-5(or 4)-phenyl-2-(1,1,2,2-tetrafluoroethylsulfonyl)imidazole] | 0.065 |  |  | mean plaque forming cells per million spleen cells (N = 20) ([4]; daily oral dose 0.07 mg/kg): 412 cells per million spleen cells; mean plaque forming cells per million spleen cells (N = 20) ([4]; daily oral dose 0.7 mg/kg): 367 cells per million spleen cells; mean % B cells ([5]; daily oral dose 0.1 mg/kg): 48%; mean % B cells ([5]; daily oral dose 1.0 mg/kg): 42%
COc1ccc(-c2nc(S(=O)(=O)C(F)(F)C(F)Br)[nH]c2-c2ccc(OC)cc2)cc1 (centres unmarked) [Example 95] | 2.4 | 2.8 |  | 
COc1ccc(-c2nc(S(=O)(=O)C(F)(F)CF)[nH]c2-c2ccc(OC)cc2)cc1 [Example 125, 4,5-bis(4-methoxyphenyl)-2-(1,1,2-trifluoroethylsulfonyl)imidazole] | 5 | 0.25 | 160 | 
COc1ccc(-c2nc(S(=O)(=O)C(F)(F)F)[nH]c2-c2ccc(OC)cc2)cc1 [Example 127, 4,5-bis(4-methoxyphenyl)-2-(trifluoromethylsulfonyl)imidazole] | 0.33 | 0.045 | 240 | 
COc1ccc(-c2nc(S(=O)(=O)C(F)(F)F)[nH]c2-c2ccc(F)cc2)cc1 [Example 130] | 1.4 | 0.1 |  | 
COc1ccc(-c2[nH]c(S(=O)(=O)C(F)(F)C(F)F)nc2-c2ccc(F)cc2)cc1 [Example 133] | 2.2 | 0.27 |  | 
C[S+]([O-])c1nc(-c2ccc(F)cc2)c(-c2ccc(F)cc2)[nH]1 (centres unmarked) [Example 136] | 4 |  |  | 
O=S(=O)(c1nc(-c2ccccc2)c(-c2ccc(Cl)c(Cl)c2)[nH]1)C(F)(F)C(F)F [Example 137, 4(or 5)-(3,4-dichlorophenyl)-5(or 4)-phenyl-2-(1,1,2,2-tetrafluoroethylsulfonyl)imidazole] | 0.25 |  |  | 
CCOc1ccc(-c2[nH]c(S(C)(=O)=O)nc2-c2ccccc2)cc1 [Example 138] |  |  |  | percent (%) reduction in paw volume measured at the indicated dose ([1]; 50 mg./kg.): 41%
C[S+]([O-])c1nc(-c2ccccc2)c(-c2cccc(Cl)c2)[nH]1 (centres unmarked) [Example 139] |  |  |  | percent (%) reduction in paw volume measured at the indicated dose ([1]; 75 mg./kg.): 77%
CS(=O)(=O)c1nc(-c2ccccc2)c(-c2ccc(F)cc2)[nH]1 [Example 141] |  |  |  | percent (%) reduction in paw volume measured at the indicated dose ([1]; 9 mg./kg.): 26%
CCOc1ccc(-c2[nH]c(S(=O)(=O)C(F)(F)C(F)F)nc2-c2ccccc2)cc1 [Example 142] | 1.5 | 0.95 | 120 | 
O=S(=O)(c1nc(-c2ccccc2)c(-c2cccc(F)c2)[nH]1)C(F)(F)C(F)F [Example 143] | 0.06 |  |  | 
O=S(=O)(c1nc(-c2ccccc2)c(-c2cccc(Cl)c2)[nH]1)C(F)(F)C(F)F [Example 144] | 0.05 |  |  | 
CS(=O)(=O)c1nc(-c2ccccc2)c(-c2ccc(Cl)c(Cl)c2)[nH]1 [Example 145] |  |  |  | percent (%) reduction in paw volume measured at the indicated dose ([1]; 50 mg./kg.): 59%
C[S+]([O-])c1nc(-c2ccccc2)c(-c2ccc(Cl)c(Cl)c2)[nH]1 (centres unmarked) [Example 146] | 50 |  |  | 
CS(=O)(=O)c1nc(-c2ccccc2)c(-c2cccc(F)c2)[nH]1 [Example 147] |  |  |  | percent (%) reduction in paw volume measured at the indicated dose ([1]; 75 mg./kg.): 32%
C[S+]([O-])c1nc(-c2ccccc2)c(-c2cccc(F)c2)[nH]1 (centres unmarked) [Example 148] |  |  |  | percent (%) reduction in paw volume measured at the indicated dose ([1]; 100 mg./kg.): 67%
CS(=O)(=O)c1nc(-c2ccccc2)c(-c2cccc(Cl)c2)[nH]1 [Example 149] |  |  |  | percent (%) reduction in paw volume measured at the indicated dose ([1]; 10 mg./kg.): 55%
